This note sets out measurements from patent publication US8889878B2, “Haloalky-substituted amides as insecticides and acaricides” (Bayer CropScience AG, priority 2009, dated 2014).

Data set [1] has as its system Boophilus microplus. As to the kind of experiment: Boophilus microplus test (BOOPMI injection), Example 1. As to conditions: application rate 20 μg/animal, injected into abdomen, after 7 days. It is filed as in vivo. The essentials:
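Compound in DMSO, diluted with water, injected into the abdomen of engorged ticks, which were then held in a climate-controlled room. Efficacy was scored after 7 days from fertile egg laying, with 100% meaning no tick laid fertile eggs.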

Data set [2] concerns Ctenocephalides felis. As to the kind of experiment: Ctenocephalides felis oral (CTECFE), Example 2. The class given is in vivo. As to conditions: application rate 20 ppm in citrated cow's blood, after 2 days. The essentials: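 Compound in DMSO diluted into citrated cow's blood, offered to 20 unfed adult C. felis through a Parafilm membrane. Kill rate (%) scored after 2 days; 100% means all fleas dead.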

The test system of a further data set is Lucilia cuprina larvae. As to the kind of experiment: Lucilia cuprina test (LUCICU), Example 3. As to conditions: application rate 20 ppm, treated horsemeat, after 2 days. It is filed as in vivo. The procedure, abridged:
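Horsemeat treated with a water dilution of a DMSO formulation of active ingredient was populated with Lucilia cuprina larvae. Kill rate in % read after 2 days; 100% means all larvae killed, 0% none.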

Data set [3] has as its system armyworm (Spodoptera frugiperda). As to the kind of experiment: Spodoptera frugiperda test (SPODFR spray treatment), Example 6. It is filed as in vivo. As to conditions: application rate 20 g/ha, maize leaf discs sprayed, after 7 days. The procedure: Spodoptera frugiperda Test (SPODFR Spray Treatment)
• Solvent: 78.0 parts by weight of acetone • 1.5 parts by weight of dimethylformamide • Emulsifier: 0.5 part by weight of alkylaryl polyglycol ether
To prepare an active ingredient formulation, 1 part by weight of active ingredient was mixed with the stated amounts of solvent and emulsifier, and the concentrate was diluted with emulsifier-containing water to the desired concentration. Leaf discs from maize (Zea mays) are sprayed with an active ingredient formulation of the desired concentration and, after drying, populated with caterpillars of the armyworm (Spodoptera frugiperda).
After 7 days, the efficacy in % is determined. 100% means that all caterpillars were killed; 0% means that no caterpillars were killed.

For data set [4], the system named is mustard beetle (Phaedon cochleariae). As to the kind of experiment: Phaedon test (PHAECO spray treatment), Example 7. It is filed as in vivo. As to conditions: application rate 20 g/ha, china cabbage leaf discs sprayed, after 7 days. The essentials:
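Spray formulation (acetone/DMF with alkylaryl polyglycol ether, diluted in emulsifier-containing water) applied to Chinese cabbage leaf discs, which were dried and then stocked with mustard beetle larvae. Efficacy scored at 7 days as % larvae killed (100% all, 0% none).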

Data set [5] concerns Boophilus microplus. The data set is described as follows: Boophilus microplus test (BOOPMI injection), Example 11. It is filed as in vivo. As to conditions: application rate 20 μg/animal, injected into abdomen, after 7 days. The procedure, abridged: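 Adult ticks injected in the abdomen with compound diluted in DMSO, then held in a climate-controlled room. Efficacy in % determined after 7 days from fertile eggs laid; 100% means no tick laid fertile eggs.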

Data set [6] concerns Musca domestica adults. The data set is described as follows: Musca domestica test (MUSCDO), Example 14. As to conditions: application rate 100 ppm, treated sponge, after 2 days. It is filed as in vivo. The procedure, abridged: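 Compound dissolved in DMSO and diluted in water to the test concentration, then applied to a sponge in vessels holding adult flies. Percent kill scored after 2 days (100% = all flies dead).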

The subject of data set [7] is green peach aphid (Myzus persicae). The data set is described as follows: Myzus test (MYZUPE spray treatment), Example 17. As to conditions: china cabbage leaf discs sprayed, after 6 days. The class given is in vivo. The essentials:
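Chinese cabbage leaf discs infested with all aphid stages were sprayed with compound formulated in acetone/dimethylformamide plus alkylaryl polyglycol ether emulsifier, diluted in emulsifier-containing water. Mortality read after 6 days as % efficacy (100% all killed, 0% none killed).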

Data set [8] can be described thus: logP by HPLC on reverse-phase column (EEC Directive 79/831 Annex V.A8). It is filed as physicochemical. As to conditions: HPLC-MS. As for the experimental part:
The logP values reported in the above Tables and Preparation Examples were determined according to EEC Directive 79/831 Annex V.A8 by HPLC (High Performance Liquid Chromatography) on a reverse-phase column (C18). Temperature 43° C.

Data set [9] relates to Musca domestica adults. The data set is described as follows: Musca domestica test (MUSCDO), Example 4. It is filed as in vivo. As to conditions: application rate 20 ppm, treated sponge, after 2 days. As for the experimental part: Musca domestica Test (MUSCDO) • Solvent: dimethyl sulphoxide To prepare an active ingredient formulation, 10 mg of active ingredient are mixed with 0.5 ml of dimethyl sulphoxide, and the concentrate is diluted with water to the desired concentration. Vessels containing a sponge which has been treated with the active ingredient formulation of the desired concentration are populated with Musca domestica adults. After 2 days, the kill rate in % is determined. 100% means that all flies were killed; 0% means that no flies were killed.

The test system of data set [10] is red spider mite (Tetranychus urticae). The data set is described as follows: Tetranychus test, OP-resistant (TETRUR spray treatment), Example 8. The class given is in vivo. As to conditions: application rate 20 g/ha, common bean leaf discs sprayed, after 6 days. The procedure, abridged: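 Bean (Phaseolus vulgaris) leaf discs carrying all stages of OP-resistant Tetranychus urticae sprayed with compound in acetone/DMF with emulsifier, diluted in water to the test concentration. Mortality scored after 6 days as % efficacy (100% = all mites killed).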

In data set [11] the test system is Ctenocephalides felis. The data set is described as follows: Ctenocephalides felis oral (CTECFE), Example 12. The class given is in vivo. As to conditions: application rate 100 ppm in citrated cow's blood, after 2 days. The procedure: Ctenocephalides felis Oral ([…]) • Solvent: 1 part by weight of dimethyl sulphoxide For the purpose of preparing an appropriate active ingredient formulation, 10 mg of active ingredient are mixed with 0.5 ml of dimethyl sulphoxide. A portion of the concentrate is diluted with citrated cow's blood and the desired concentration is established. About 20 unfed adult fleas (Ctenocephalides felis) are placed into a chamber sealed at the top and bottom with gauze. A metal cylinder with its lower end sealed with Parafilm is placed onto the chamber. The cylinder contains the blood-active ingredient preparation, which can be consumed by the fleas through the Parafilm membrane. After 2 days, the kill rate in % is determined. 100% means that all fleas were killed; 0% means that no fleas were killed.

Data set [12] relates to green peach aphid (Myzus persicae). The data set is described as follows: Myzus test (MYZUPE spray treatment), Example 5. The class given is in vivo. As to conditions: application rate 20 g/ha, china cabbage leaf discs sprayed, after 6 days. As for the experimental part:
Myzus Test (MYZUPE Spray Treatment)
• Solvent: 78 parts by weight of acetone • 1.5 parts by weight of dimethylformamide • Emulsifier: 0.5 part by weight of alkylaryl polyglycol ether
To prepare an active ingredient formulation, 1 part by weight of active ingredient is mixed with the stated amounts of solvent and emulsifier, and the concentrate is diluted with emulsifier-containing water to the desired concentration. Leaf discs from china cabbage (Brassica pekinensis) infested by all stages of the green peach aphid (Myzus persicae) are sprayed with an active ingredient formulation of the desired concentration.
After 6 days, the efficacy in % is determined. 100% means that all aphids were killed; 0% means that no aphids were killed.

In data set [13] the test system is Boophilus microplus females of the SP-resistant Parkhurst strain. The data set is described as follows: Boophilus microplus test (DIP), Example 10. The class given is in vivo. As to conditions: application rate 100 ppm, after 7 days. As for the experimental part:
Boophilus microplus Test (DIP)
Test animals: adult engorged Boophilus microplus females of the SP-resistant Parkhurst strain • Solvent: dimethyl sulphoxide
10 mg of active ingredient are dissolved in 0.5 ml of dimethyl sulphoxide. For the purpose of preparing a suitable formulation, the active ingredient solution is diluted with water to the concentration desired in each case.
This active ingredient formulation is pipetted into tubes. 8-10 ticks are transferred into a further tube with holes. The tube is immersed into the active ingredient formulation, and all ticks are completely wetted. After the liquid has run out, the ticks are transferred onto filter discs in plastic dishes and stored in a climate-controlled room. The efficacy is assessed after 7 days by the number of fertile eggs laid. Eggs whose fertility is not outwardly visible are stored in glass tubes in a climate-controlled cabinet until the larvae hatch. Efficacy of 100% means that none of the ticks has laid any fertile eggs.

The test system of data set [14] is Tick nymphs (Amblyomma hebraeum). The data set is described as follows: Amblyomma hebaraeum test (AMBYHE), Example 9. The class given is in vivo. As to conditions: application rate 100 ppm, immersed one minute, after 42 days. As for the experimental part:
Amblyomma hebaraeum Test (AMBYHE) • Solvent: dimethyl sulphoxide To prepare an appropriate active ingredient formulation, 10 mg of active ingredient are mixed with 0.5 ml of dimethyl sulphoxide, and the concentrate is diluted with water to the desired concentration. Tick nymphs (Amblyomma hebraeum) are placed into perforated plastic cups and immersed in the desired concentration for one minute. The ticks are transferred onto filter papers in a Petri dish and stored in a climate-controlled cabinet. After 42 days, the kill rate in % is determined. 100% means that all ticks were killed; 0% means that no ticks were killed.

For data set [15], the system named is armyworm (Spodoptera frugiperda). As to the kind of experiment: Spodoptera frugiperda test (SPODFR spray treatment), Example 15. The class given is in vivo. As to conditions: application rate 100 g/ha, maize leaf discs sprayed, after 7 days. The essentials:
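Maize leaf discs sprayed with active ingredient in acetone/DMF with alkylaryl polyglycol ether emulsifier, diluted in water, then populated with caterpillars after drying. Efficacy in % after 7 days: 100% all caterpillars killed, 0% none.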

Consider `O=C(/C=C/c1ccc(C(=O)NC2CC2)c(C(F)(F)F)c1)NC(c1cccc(C(F)(F)F)c1)C(F)(F)F` (centres unmarked) [Ia-23], for which the “efficacy in % (fertile eggs laid)” value in the data set with Boophilus microplus [1] and with Boophilus microplus [5] was 100% in each case. Besides, the “kill rate in % (efficacy)” value in the data set on Ctenocephalides felis [2], in the data set on Lucilia cuprina larvae and in the data set on Musca domestica adults [6] was 100% in each case. Further, the results for the efficacy in % in data set [3], in [4] and in data set [7] (application rate 500 g/ha) were 83%, 100% and 100%, respectively. In data set [8], the logP result is given as “HPLC-MS: logP = 3.18; mass”.
Take `CC(NC(=O)c1ccc(/C=C/C(=O)NC(c2cccc(C(F)(F)F)c2)C(F)(F)F)cc1C(F)(F)F)C(F)(F)F` (centres unmarked) [Ia-30]: the “efficacy in % (fertile eggs laid)” value with Boophilus microplus [1] and in the data set with Boophilus microplus [5] was 100% in each case. The “kill rate in % (efficacy)” value was 100% with Ctenocephalides felis [2], 100% with Lucilia cuprina larvae, 85% in the data set with Musca domestica adults [9] and 100% with Musca domestica adults [6]. The logP result in [8] is “HPLC-MS: logP = 3.58; mass”.
As for `O=C(/C=C/c1ccc(C(=O)Nc2ccccn2)c(C(F)(F)F)c1)NC(c1cccc(C(F)(F)F)c1)C(F)(F)F` (centres unmarked) [Ia-54], the efficacy in % in data set [3], in [4] and in data set [10] was 100% each time. For the same molecule, the “efficacy in % (fertile eggs laid)” value with Boophilus microplus [5] amounted to 100%. Moreover, the “kill rate in % (efficacy)” value in the data set with Ctenocephalides felis [11] is 95%. Besides, the logP result in [8] is listed as “HPLC-MS: logP = 3.58; mass”.
`O=C(/C=C/c1ccc(C(=O)Nc2ccc(Cl)nc2)c(C(F)(F)F)c1)NC(c1cccc(C(F)(F)F)c1)C(F)(F)F` (centres unmarked) [Ia-72]: the efficacy in % was determined as 83% in data set [3] and 100% in data set [4]. Besides, the logP result in data set [8] was “HPLC-MS: logP = 3.73; mass”.
As for `O=C(/C=C/c1ccc(C(=O)Nc2ccccn2)c(C(F)(F)F)c1)NC(c1cc(Cl)cc(C(F)(F)F)c1)C(F)(F)F` (centres unmarked) [Ia-82], the efficacy in % amounted to 83% in data set [3] and 100% in data set [4]. The “efficacy in % (fertile eggs laid)” value in the data set with Boophilus microplus [5] was 100%. For the same molecule, the logP entry in [8] is “HPLC-MS: logP = 4.32; mass”.
Take `CC(CF)NC(=O)c1ccc(/C=C/C(=O)NC(c2cccc(C(F)(F)F)c2)C(F)(F)F)cc1Cl` (centres unmarked) [Ia-112]: the efficacy in % in data set [12], in [4] and in data set [10] was 100% throughout. In addition, the “efficacy in % (fertile eggs laid)” value (in data set [13]; in the data set with Boophilus microplus [5]) was 100% each time. Also, in data set [8], the logP entry is “HPLC-MS: logP = 3.25 mass”.
Consider `C#CC(C)NC(=O)c1ccc(/C=C/C(=O)NC(c2cccc(C(F)(F)F)c2)C(F)(F)F)cc1Cl` (centres unmarked) [Ia-161], for which the “kill rate in % (efficacy)” value in [14] is listed as 100%; with Musca domestica adults [6] it was 80%. Also, the results for the “efficacy in % (fertile eggs laid)” value (in data set [13]; in the data set with Boophilus microplus [5]) were 98% and 100%, respectively. Besides, the efficacy in % in [15] was found to be 100%; in [7] (application rate 100 g/ha), 90%. In addition, in [8], the logP entry is recorded as “HPLC-MS: logP = 3.43; mass”.
As for `O=C(/C=C/c1ccc(C(=O)NC2CCC2)c(Cl)c1)NC(c1cccc(C(F)(F)F)c1)C(F)(F)F` (centres unmarked) [Ia-162], the “kill rate in % (efficacy)” value in data set [14] is on record as 100%. The “efficacy in % (fertile eggs laid)” value (in data set [13]; in the data set with Boophilus microplus [5]) was 100% each time. Besides, the efficacy in % in data set [7] (application rate 100 g/ha) worked out at 100%. In addition, the logP result in data set [8] is on record as “HPLC-MS: logP = 3.59; mass”.
